Data set [1] relates to Mustard beetles (PC) (Phaedon cochleariae Fab). It counts as in vivo. As to conditions: Tables 10, 13, 14; NA = lack of detectable activity. As for the experimental part: A one microlitre drop of an acetone solution of the test compound was applied ventrally to adult mustard beetles using a micro drop applicator. The treated insects were maintained for 48 hours after which time kill was assessed. Two replicates each of 20 to 25 mustard beetles were used at each dose level and 5 dose levels were treated comparably. LD50 values were calculated as for houseflies.

For a further data set, the system named is Aspergillus niger. As to the kind of experiment: Fungitoxicity in vitro on potato dextrose agar. As to conditions: A. niger; 100 mg 1^-1; 4 days. It counts as cell-based.
The test system of data set [2] is Whitefly (BT) (Bemisia tabaci), susceptible strain (SUD-S). Description: Whitefly residual film vial test, susceptible strain SUD-S. It is filed as in vivo. The note with it: 48 h, Tables 10, 13, 14, susceptible strain, NA = lack of detectable activity, read-out: BT LC50 (ppm/insect). A digest of the protocol:
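Thirty adult whiteflies were held for 60 min in glass vials coated with a dry compound film cast from acetone, then moved to untreated cotton leaf discs on agar at 25°C. Mortality was scored after 48 h, with three replicates at each of 5 to 7 dose levels.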

Data set [3] has as its system Mites (TU) (Tetranychus urticae), susceptible strain (GSS). As to the kind of experiment: Mite immersion test, susceptible strain GSS. It is filed as in vivo. The note with it: 72 h, Tables 10, 13, 14, susceptible strain, NA = lack of detectable activity, read-out: TU LC50 (ppm/insect). The method, boiled down:
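Groups of 25 adult female GSS-strain mites dipped 30 s in compound solution in 1:4 acetone–water, held at 21 ± 2 °C, and mortality scored at 72 h. Triplicates at 5–6 dose rates gave LC50 in ppm.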

The next data set deals with Rhizoctonia solani. As to the kind of experiment: Fungitoxicity in vitro on potato dextrose agar. It is filed as cell-based. The note with it: R. solani; 100 mg 1^-1; 4 days.
Data set [4] has as its system Myzus persicae, susceptible strain (US1L). Description: Aphid dip test, susceptible strain. It is filed as in vivo.
A short description of data set [5]: Mammalian toxicity, whole body LD50. The note with it: rat, in vivo; rats. The text has this: In addition to the specific insecticidal and acaricidal tests described above, compounds of the present invention were submitted for further tests relating to toxicity to mammals and so-called friendly species such as Chrysloperla carnea, Aleochora bilineata and Coccinella septempunctata.

Data set [6] has as its system Pyricularia oryzae (=Magnaporthe grisea). It is filed as cell-based. The note with it: P. oryzae; 100 mg 1^-1; 7 days.
For data set [7], the system named is Houseflies (MD) (Musca domestica). It counts as in vivo. As to conditions: Tables 10, 13, 14; NA = lack of detectable activity. A digest of the protocol:
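Female flies dosed topically on the thorax with 1 µl of compound in acetone; 6 dose rates, 2 replicates of 15 flies each. Held at 20° ± 1°C, with kill scored at 24 and 48 h. LD50 expressed as µg compound per fly.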

Experimental findings from patent EP0802730B1, “PESTICIDAL COMPOUNDS” (BTG INTERNATIONAL LIMITED, priority 1995, dated 1996) are described below.

≈ marks a conversion by molar mass, not a printed value. Read-outs that look alike come from different tables or passages of the source.

One may read the LD50 as the dose expected to kill half of the subjects tested.

On to `CC1(C2=C(O)C(=O)c3ccccc3C2=O)CCCCC1` [Example 25, 2-hydroxy-3-(1'-methylcyclohexyl)-naphthalene-1,4-dione], for which the “PC LD50 (µg/insect)” value in [1] was 5 µg/insect. For the same compound, the entries for the “% inhibition of growth in colony diameter in agar plates, Activity at 100 mg 1^-1” value (in the data set on Aspergillus niger; with Rhizoctonia solani; in data set [6]) were 45%, 93% and 94%, respectively. Moreover, the LC50 in [2] was determined as 0.1 µg/mL (≈ 0.37 µM); in data set [3], 28 µg/mL (≈ 104 µM). Further, the mortality at 100 ppm in data set [4] (read-out: MP % kill 100 ppm) was determined as 22%; in data set [4] (strain S, 100 PPM, read-out: % mortality corrected for control data) it was 23%. For the same compound, the mortality at 250 ppm in data set [4] (strain S, 250 PPM, read-out: % mortality corrected for control data) was found to be 67%. The compound further came in with a 50% lethal dose (LD50) in data set [5] of 2790 mg/kg. Also, in data set [7], the “MD LD50 (µg/insect)” value was 1.9 µg/insect.
